Measurements: ChEMBL document CHEMBL5247607, “Design, synthesis and biological evaluation of a new series of arylidene indanones as small molecules for targeted therapy of non-small cell lung carcinoma and prostate cancer” (Eur J Med Chem, 2022)
Active and inactive are the calls of the source. The calls are words filed in the database; no cut-off is given here.

Experiments:
[1] = molecular target: Cathepsin D (Homo sapiens) (UniProt P07339); assay: Inhibition of cathepsin D (unknown origin) at 100 uM relative to control
PANC-1 [2] = assay: Induction of apoptosis in human PANC-1 cells assessed as activation of caspase-3 by measuring caspase-3 positive cells at IC50 incubated for 24 hrs by flow cytometry analysis (reference value: 1.8%); assay type: functional
[3] = Cytotoxicity against human CCD 19Lu cells assessed as inhibition of cell growth incubated for 24 hrs by MTT assay; assay type: toxicity, cell-based
A549 [4] = assay: Induction of morphological changes in human A549 cells assessed as cell shrinkage at 5.99 uM incubated for 24 hrs by acridine orange/ethidium bromide staining based fluorescence microscopic analysis; assay type: functional
A549 [5] = assay: Induction of apoptosis in human A549 cells assessed as total apoptotic cells at IC50 incubated for 24 hrs by annexin V-FITC/PI staining based flow cytometry analysis relative to control; assay type: functional
A549 [6] = assay: Induction of apoptosis in human A549 cells assessed as total cell viability at IC50 incubated for 24 hrs by annexin V-FITC/PI staining based flow cytometry analysis (reference value: 85.6 %); assay type: functional
[7] = Selectivity index, ratio of IC50 for cytotoxicity against human hTERT-HPNE cells to IC50 for cytotoxicity against human PANC-1 cells; assay type: toxicity, cell-based; conditions: hTERT-HPNE cells versus PANC-1 cells, read-out: Ratio IC50
A549 [8] = assay: Inhibition of DNA synthesis in human A549 cells at 5.99 uM incubated for 24 hrs by BrdU incorporation assay relative to control; assay type: functional
PANC-1 [9] = assay: Induction of mitochondrial membrane potential loss in human PANC-1 cells assessed as depolarized cells at IC50 incubated for 24 hrs by JC-1 staining based flow cytometry assay (reference value: 5%); assay type: functional
PANC-1 [10] = assay: Induction of morphological changes in human PANC-1 cells assessed as formation of apoptotic bodies at 5.99 uM incubated for 24 hrs by acridine orange/ethidium bromide staining based fluorescence microscopic analysis; assay type: functional, cell-based
A549 [11] = assay: Induction of mitochondrial membrane potential loss in human A549 cells assessed as depolarized cells at IC50 incubated for 24 hrs by JC-1 staining based flow cytometry assay (reference value: 6.9%); assay type: functional
PANC-1 [12] = assay: Induction of morphological changes in human PANC-1 cells assessed as chromatin condensation at 5.99 uM incubated for 24 hrs by acridine orange/ethidium bromide staining based fluorescence microscopic analysis; assay type: functional, cell-based
PANC-1 [13] = assay: Induction of morphological changes in human PANC-1 cells assessed as cell shrinkage at 5.99 uM incubated for 24 hrs by acridine orange/ethidium bromide staining based fluorescence microscopic analysis; assay type: functional
PANC-1 [14] = assay: Cytotoxicity against human PANC-1 cells assessed as inhibition of cell growth incubated for 24 hrs by MTT assay; assay type: functional, cell-based; conditions: PANC-1, 24 h
PANC-1 [15] = assay: Induction of apoptosis in human PANC-1 cells assessed as total cell viability at IC50 incubated for 24 hrs by annexin V-FITC/PI staining based flow cytometry analysis (reference value: 84.4%); assay type: functional
A549 [16] = assay: Induction of morphological changes in human A549 cells assessed as formation of apoptotic bodies at 5.99 uM incubated for 24 hrs by acridine orange/ethidium bromide staining based fluorescence microscopic analysis; assay type: functional, cell-based
A549 [17] = assay: Cytotoxicity against human A549 cells assessed as inhibition of cell growth incubated for 24 hrs by MTT assay; assay type: functional, cell-based; conditions: A549, 24 h
A549 [18] = assay: Induction of apoptosis in human A549 cells assessed as early apoptotic cells at IC50 incubated for 24 hrs by annexin V-FITC/PI staining based flow cytometry analysis (reference value: 5.6%); assay type: functional
A549 [19] = assay: Induction of apoptosis in human A549 cells assessed as activation of caspase-3 by measuring caspase-3 negative cells at IC50 incubated for 24 hrs by flow cytometry analysis (reference value: 91.1%); assay type: functional
PANC-1 [20] = assay: Induction of apoptosis in human PANC-1 cells assessed as early apoptotic cells at IC50 incubated for 24 hrs by annexin V-FITC/PI staining based flow cytometry analysis (reference value: 0%); assay type: functional
A549 [21] = assay: Induction of apoptosis in human A549 cells assessed as activation of caspase-3 by measuring caspase-3 positive cells at IC50 incubated for 24 hrs by flow cytometry analysis (reference value: 8.4%); assay type: functional
A549 [22] = assay: Induction of mitochondrial membrane potential loss in human A549 cells assessed as polarized cells at IC50 incubated for 24 hrs by JC-1 staining based flow cytometry assay (reference value: 90.6%); assay type: functional
[23] = Cytotoxicity against human hTERT-HPNE cells assessed as inhibition of cell growth incubated for 24 hrs by MTT assay; assay type: toxicity, cell-based
PANC-1 [24] = assay: Inhibition of DNA synthesis in human PANC-1 cells at 5.99 uM incubated for 24 hrs by BrdU incorporation assay relative to control; assay type: functional
A549 [25] = assay: Induction of morphological changes in human A549 cells assessed as chromatin condensation at 5.99 uM incubated for 24 hrs by acridine orange/ethidium bromide staining based fluorescence microscopic analysis; assay type: functional, cell-based
[26] = Selectivity index, ratio of IC50 for cytotoxicity against human CCD 19Lu cells to IC50 for cytotoxicity against human A549 cells; assay type: toxicity, cell-based; conditions: CCD 19Lu cells versus A549 cells, read-out: Ratio IC50
PANC-1 [27] = assay: Induction of mitochondrial membrane potential loss in human PANC-1 cells assessed as polarized cells at IC50 incubated for 24 hrs by JC-1 staining based flow cytometry assay (reference value: 92%); assay type: functional
PANC-1 [28] = assay: Induction of apoptosis in human PANC-1 cells assessed as late apoptotic cells at IC50 incubated for 24 hrs by annexin V-FITC/PI staining based flow cytometry analysis (reference value: 0.2%); assay type: functional
A549 [29] = assay: Induction of apoptosis in human A549 cells assessed as increase in intracellular calcium level at 5.99 uM by Fluo-4-AM staining based flow cytometry analysis; assay type: functional, cell-based
PANC-1 [30] = assay: Induction of apoptosis in human PANC-1 cells assessed as activation of caspase-3 by measuring caspase-3 negative cells at IC50 incubated for 24 hrs by flow cytometry analysis (reference value: 98.5 %); assay type: functional
A549 [31] = assay: Induction of apoptosis in human A549 cells assessed as late apoptotic cells at IC50 incubated for 24 hrs by annexin V-FITC/PI staining based flow cytometry analysis (reference value: 6.5 %); assay type: functional
PANC-1 [32] = assay: Induction of morphological changes in human PANC-1 cells assessed as formation of apoptotic bodies at 6.51 uM incubated for 24 hrs by acridine orange/ethidium bromide staining based fluorescence microscopic analysis; assay type: functional, cell-based
[33] = molecular target: Procathepsin L (Homo sapiens) (UniProt P07711); assay: Inhibition of cathepsin L (unknown origin) at 100 uM
PANC-1 [34] = assay: Induction of morphological changes in human PANC-1 cells assessed as chromatin condensation at 6.51 uM incubated for 24 hrs by acridine orange/ethidium bromide staining based fluorescence microscopic analysis; assay type: functional, cell-based
PANC-1 [35] = assay: Induction of apoptosis in human PANC-1 cells assessed as total apoptotic cells at IC50 incubated for 24 hrs by annexin V-FITC/PI staining based flow cytometry analysis relative to control; assay type: functional
PANC-1 [36] = assay: Inhibition of DNA synthesis in human PANC-1 cells at 6.51 uM incubated for 24 hrs by BrdU incorporation assay relative to control; assay type: functional
PANC-1 [37] = assay: Induction of morphological changes in human PANC-1 cells assessed as cell shrinkage at 6.51 uM incubated for 24 hrs by acridine orange/ethidium bromide staining based fluorescence microscopic analysis; assay type: functional

Sequence of Cathepsin D (Homo sapiens) (P07339 65-162 limits assumed): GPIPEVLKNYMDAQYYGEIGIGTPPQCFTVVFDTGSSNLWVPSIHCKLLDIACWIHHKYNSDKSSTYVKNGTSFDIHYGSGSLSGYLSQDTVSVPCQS
Sequence of Cathepsin D (Homo sapiens) (P07339 169-412 limits assumed): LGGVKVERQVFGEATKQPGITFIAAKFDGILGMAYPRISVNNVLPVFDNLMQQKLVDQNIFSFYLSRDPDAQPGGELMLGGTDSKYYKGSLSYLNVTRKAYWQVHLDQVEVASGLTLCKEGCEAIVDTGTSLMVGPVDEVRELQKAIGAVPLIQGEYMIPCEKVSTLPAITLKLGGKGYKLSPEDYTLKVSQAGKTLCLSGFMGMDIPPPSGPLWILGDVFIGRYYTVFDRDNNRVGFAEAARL
Sequence of Procathepsin L (Homo sapiens) (P07711 114-333 limits assumed): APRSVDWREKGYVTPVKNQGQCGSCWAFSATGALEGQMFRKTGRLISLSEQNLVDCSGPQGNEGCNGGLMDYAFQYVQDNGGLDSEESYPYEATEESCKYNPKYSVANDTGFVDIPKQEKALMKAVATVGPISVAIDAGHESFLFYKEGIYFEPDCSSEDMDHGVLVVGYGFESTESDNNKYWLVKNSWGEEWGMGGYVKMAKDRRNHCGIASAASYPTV

inhibition [1] [%]	Compound	Activity (PANC-1 [2]) [%]	IC50 at 24 h [3] [µM]	selectivity ratio [7]	Activity (PANC-1 [9]) [%]	IC50 (PANC-1 [14]) [µM]	Activity (PANC-1 [15]) [%]	IC50 (A549 [17]) [µM]	Activity (PANC-1 [20]) [%]	IC50 at 24 h [23] [µM]	selectivity ratio [26]	Activity (PANC-1 [27]) [%]	Activity (PANC-1 [28]) [%]	Activity (PANC-1 [30]) [%]	other results
52.7	O=C1/C(=C/c2ccc(N3CCCC3)cc2)Cc2cc3c(cc21)OCO3	11.3	61.5	> 128	16.7	< 11.7	76.3	< 11.7	0.6	> 1500	> 5.25	82	3.4	89.6	Activity (A549 [4]): Active; Activity (A549 [5]): 85.4%; Activity (A549 [6]): 12.5%; inhibition at 5.99 µM (A549 [8]): 4.41%; Activity (PANC-1 [10]): Active; Activity (A549 [11]): 65%; Activity (PANC-1 [12]): Active; Activity (PANC-1 [13]): Active; Activity (A549 [16]): Active; Activity (A549 [18]): 65.4%; Activity (A549 [19]): 92.5%; Activity (A549 [21]): 7.4%; Activity (A549 [22]): 76.4%; inhibition at 5.99 µM (PANC-1 [24]): 31%; Activity (A549 [25]): Active; Activity (A549 [29]): Active; Activity (A549 [31]): 20%
27.5	CN(C)c1ccc(/C=C2\Cc3cc4c(cc3C2=O)OCO4)cc1	4.7	> 1630	> 128	11	< 12.7	50.4	66.2	24.7	> 1630	> 24.6	83.9	15.9	96.5	Activity (PANC-1 [32]): Active; inhibition [33]: inactive; Activity (PANC-1 [34]): Active; Activity (PANC-1 [35]): 40.6%; inhibition at 6.51 µM (PANC-1 [36]): 16.9%; Activity (PANC-1 [37]): Active
